Source: ChEMBL document CHEMBL1201862, “PubChem BioAssay data set” (2004)
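Step 1: Grow cells in 96-well plates. Step 2: Expose to compound for 48 hours at 5 concentrations. Step 3: Interpolate endpoints linearly; if unreached, use highest concentration. GI50 = concentration required for 50% inhibition of growth.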 The source made the active and inactive calls. No stated cut-off is given here; in the data, active = GI50 up to about 1.1 µM and inactive = higher. Square brackets hold non-standard residues; d marks the D form. Peptide text beside a SMILES is read from it. * marks the point of attachment. ξ: configuration not given here. Propanoyl(3-(4-MeO-Ph)) = COc1ccc(CCC(=O)*)cc1; Thr(3ξ) = CC(O)[C@H](N)C(=O)O; dNMeL = CN[C@H](CC(C)C)C(=O)O; ξLac = CC(O)C(=O)O

Columns and labels:
Assay in all cases: NCI tumour cell line growth inhibition, 48 h
T47D = system: T47D
Malme-3M = system: Malme-3M
SK-OV-3 = system: SK-OV-3
IGROV-1 = system: IGROV-1
OVCAR-8 = system: OVCAR-8
SW-620 = system: SW-620
HOP-92 = system: HOP-92
SNB-75 = system: SNB-75
MOLT-4 = system: MOLT-4
OVCAR-5 = system: OVCAR-5
NCI-H226 = system: NCI-H226
PC-3 = system: PC-3
U-251 = system: U-251
RPMI-8226 = system: RPMI-8226
COLO 205 = system: COLO 205
CCRF-CEM = system: CCRF-CEM
KM12 = system: KM12
OVCAR-4 = system: OVCAR-4
CAKI-1 = system: CAKI-1
NCI/ADR-RES = system: NCI/ADR-RES

Structure (SMILES) | GI50 (T47D) | GI50 (Malme-3M) | GI50 (SK-OV-3) | GI50 (IGROV-1) | GI50 (OVCAR-8) | GI50 (SW-620) | GI50 (HOP-92) | GI50 (SNB-75) | GI50 (MOLT-4) | GI50 (OVCAR-5) | GI50 (NCI-H226) | GI50 (PC-3) | GI50 (U-251) | GI50 (RPMI-8226) | GI50 (COLO 205) | GI50 (CCRF-CEM) | GI50 (KM12) | GI50 (OVCAR-4) | GI50 (CAKI-1) | GI50 (NCI/ADR-RES)
COC(=O)Nc1nc2ccccc2[nH]1 [CARBENDAZIM] | 9.51 µM (inactive) | > 43.9 µM (inactive) | 3.44 µM (inactive) | 8.17 µM (inactive) | 10.8 µM (inactive) | 3.57 µM (inactive) | > 100 µM (inactive) | 9.38 µM (inactive) | 6.34 µM (inactive) | 49.4 µM (inactive) | 10.4 µM (inactive) | 15.3 µM (inactive) | 4.86 µM (inactive) | 5.25 µM (inactive) | 5.05 µM (inactive) | 21.2 µM (inactive) | 4.26 µM (inactive) | > 47.4 µM (inactive) | 11.4 µM (inactive) | 3.13 µM (inactive)
COC(=O)[C@@H](NC(=O)[C@@H](CC(C)C)N(C)C(=O)[C@@H]1CCCN1C(=O)C(C)O)C(C)OC(=O)CCc1ccc(OC)cc1 (stereo not given in full) (H-[ξLac]P[dNMeL][Thr(3ξ)](Propanoyl(3-(4-MeO-Ph)))-OMe) | > 100 µM (inactive) | > 100 µM (inactive) | > 100 µM (inactive) | > 100 µM (inactive) | > 100 µM (inactive) | > 100 µM (inactive) | > 100 µM (inactive) | > 100 µM (inactive) | 60.5 µM (inactive) | > 100 µM (inactive) | > 100 µM (inactive) | > 100 µM (inactive) | > 100 µM (inactive) | > 100 µM (inactive) | > 100 µM (inactive) | > 100 µM (inactive) | > 100 µM (inactive) | > 100 µM (inactive) | > 100 µM (inactive) | > 100 µM (inactive)
Nc1nc(Cl)cc(NCC2(O)CCC2)n1 | > 100 µM (inactive) | > 100 µM (inactive) | > 100 µM (inactive) | > 100 µM (inactive) | > 100 µM (inactive) | > 100 µM (inactive) | > 100 µM (inactive) | > 100 µM (inactive) | > 100 µM (inactive) | > 100 µM (inactive) | > 100 µM (inactive) | > 100 µM (inactive) | > 100 µM (inactive) | > 100 µM (inactive) | > 100 µM (inactive) | > 10 µM (inactive) | > 100 µM (inactive) | > 100 µM (inactive) | > 100 µM (inactive) | > 100 µM (inactive)
COc1cc2nc3n(c(=O)c2cc1OC)CCCCC3 | > 100 µM (inactive) | > 100 µM (inactive) | > 100 µM (inactive) | > 100 µM (inactive) | > 100 µM (inactive) | > 100 µM (inactive) | > 100 µM (inactive) | > 100 µM (inactive) | > 100 µM (inactive) | > 100 µM (inactive) | > 100 µM (inactive) | > 100 µM (inactive) | > 100 µM (inactive) | 83.9 µM (inactive) | > 100 µM (inactive) | 94.2 µM (inactive) | > 100 µM (inactive) | > 100 µM (inactive) | > 100 µM (inactive) | > 100 µM (inactive)
NNC(=O)CC(=O)Nc1ccc(Cl)cc1 | > 100 µM (inactive) | > 100 µM (inactive) | > 100 µM (inactive) | > 100 µM (inactive) | > 100 µM (inactive) | > 100 µM (inactive) | > 100 µM (inactive) | > 100 µM (inactive) | > 100 µM (inactive) | > 100 µM (inactive) | > 100 µM (inactive) | > 100 µM (inactive) | > 100 µM (inactive) | > 100 µM (inactive) | > 100 µM (inactive) | > 100 µM (inactive) | > 100 µM (inactive) | > 100 µM (inactive) | > 100 µM (inactive) | > 100 µM (inactive)
CC(C)N(c1cc2c(cc1F)c(=O)c(C(=O)O)cn2-c1ccc(N2CCN(C)CC2)cn1)C(C)C | > 100 µM (inactive) | > 100 µM (inactive) | > 100 µM (inactive) | > 100 µM (inactive) | > 100 µM (inactive) | > 100 µM (inactive) | > 100 µM (inactive) | > 100 µM (inactive) | > 100 µM (inactive) | > 100 µM (inactive) | > 100 µM (inactive) | > 100 µM (inactive) | > 100 µM (inactive) | > 100 µM (inactive) | > 100 µM (inactive) | > 100 µM (inactive) | > 100 µM (inactive) | > 100 µM (inactive) | > 100 µM (inactive) | > 100 µM (inactive)
Oc1nc2nc3ccccc3nc2nc1O | > 100 µM (inactive) | > 100 µM (inactive) | > 100 µM (inactive) | > 100 µM (inactive) | > 100 µM (inactive) | > 100 µM (inactive) | > 100 µM (inactive) | 75.2 µM (inactive) | > 100 µM (inactive) | > 100 µM (inactive) | > 100 µM (inactive) | > 100 µM (inactive) | > 100 µM (inactive) | > 100 µM (inactive) | > 100 µM (inactive) | > 100 µM (inactive) | > 100 µM (inactive) | > 100 µM (inactive) | > 100 µM (inactive) | > 100 µM (inactive)
CCc1cc2c(c3c1CCCC3=O)CC1(Cc3ccc(C(=O)OC)cc3C1)C2 (stereo not given) | 65.2 µM (inactive) | 49.2 µM (inactive) | > 100 µM (inactive) | > 100 µM (inactive) | > 100 µM (inactive) | > 100 µM (inactive) | 29.1 µM (inactive) | 26.7 µM (inactive) | 24.9 µM (inactive) | > 100 µM (inactive) | > 100 µM (inactive) | 14.4 µM (inactive) | 82.8 µM (inactive) | 18.7 µM (inactive) | 47.9 µM (inactive) | 29.3 µM (inactive) | 30.6 µM (inactive) | 40.9 µM (inactive) | 96.6 µM (inactive) | 76 µM (inactive)
CC(C)(CN)CN | > 100 µM (inactive) | > 100 µM (inactive) | > 100 µM (inactive) | > 100 µM (inactive) | > 100 µM (inactive) | > 100 µM (inactive) | > 100 µM (inactive) | > 100 µM (inactive) | > 100 µM (inactive) | > 100 µM (inactive) | > 100 µM (inactive) | > 100 µM (inactive) | > 100 µM (inactive) | > 100 µM (inactive) | > 100 µM (inactive) | > 100 µM (inactive) | > 100 µM (inactive) | > 100 µM (inactive) | > 100 µM (inactive) | > 100 µM (inactive)
O=C(NC(=O)c1ccccc1[N+](=O)[O-])Nc1ccc(Oc2ncc(Cl)cn2)c([N+](=O)[O-])c1 | 0.414 µM (active) | 0.061 µM (active) | 0.146 µM (active) | 0.368 µM (active) | 1.78 µM (inactive) | 0.106 µM (active) | 0.27 µM (active) | 0.0767 µM (active) | 0.171 µM (active) | 0.875 µM (active) | 0.263 µM (active) | 0.196 µM (active) | 0.255 µM (active) | 0.187 µM (active) | 0.34 µM (active) | 0.126 µM (active) | 0.0975 µM (active) | 21.9 µM (inactive) | 0.0456 µM (active) | 0.305 µM (active)
Nc1nc(NCCCO)cc(=O)[nH]1 | > 100 µM (inactive) | > 100 µM (inactive) | > 100 µM (inactive) | > 100 µM (inactive) | > 100 µM (inactive) | > 100 µM (inactive) | > 100 µM (inactive) | > 100 µM (inactive) | > 100 µM (inactive) | > 100 µM (inactive) | > 100 µM (inactive) | > 100 µM (inactive) | > 100 µM (inactive) | > 100 µM (inactive) | > 100 µM (inactive) | > 100 µM (inactive) | > 100 µM (inactive) | > 100 µM (inactive) | > 100 µM (inactive) | > 100 µM (inactive)
O=[N+]([O-])c1ccc(S(=O)(=O)Cc2ccccc2)c([N+](=O)[O-])c1 | 1.35 µM (inactive) | 2.91 µM (inactive) | 6.78 µM (inactive) | 2.6 µM (inactive) | 1.89 µM (inactive) | 1.51 µM (inactive) | 1.79 µM (inactive) | 7.48 µM (inactive) | 0.139 µM (active) | 9.55 µM (inactive) | 21.9 µM (inactive) | 1.78 µM (inactive) | 2.23 µM (inactive) | 1.4 µM (inactive) | 1.79 µM (inactive) | 0.17 µM (active) | 7.38 µM (inactive) | 2.2 µM (inactive) | 1.72 µM (inactive) | 3.21 µM (inactive)
N#Cc1c(-c2ccc(Cl)cc2)cc(-c2ccc(Nc3ccnc4cc(C(F)(F)F)ccc34)cc2)[nH]c1=O | 4.79 µM (inactive) | 14.1 µM (inactive) | 28.1 µM (inactive) | > 54.3 µM (inactive) | 38.3 µM (inactive) | 14 µM (inactive) | 17.1 µM (inactive) | 11.7 µM (inactive) | 4.05 µM (inactive) | > 40.5 µM (inactive) | > 92.3 µM (inactive) | 69.2 µM (inactive) | 2.63 µM (inactive) | 21.1 µM (inactive) | 21 µM (inactive) | 3.7 µM (inactive) | 67.1 µM (inactive) | 8.41 µM (inactive) | > 43.4 µM (inactive) | > 100 µM (inactive)
O=c1[nH]c2ccccc2nc1CBr | 12.5 µM (inactive) | 2.74 µM (inactive) | 21.5 µM (inactive) | 4.22 µM (inactive) | 13.8 µM (inactive) | 4.19 µM (inactive) | 3.39 µM (inactive) | 12.8 µM (inactive) | 1.87 µM (inactive) | 17.7 µM (inactive) | 15.8 µM (inactive) | 12.6 µM (inactive) | 9.98 µM (inactive) | 2.06 µM (inactive) | 5.78 µM (inactive) | 0.399 µM (active) | 2.56 µM (inactive) | 4.62 µM (inactive) | 7.33 µM (inactive) | 19.7 µM (inactive)
